Several values for one entry are separate records, joined by “and”; a condition that tells them apart may be missing. Equal entries are not always repeated.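 In this assay, cells in 96-well plates receive the compound at five concentrations for 48 hours. Endpoints are linearly interpolated between the surrounding concentrations. Here, GI50 denotes the concentration required for 50% inhibition of growth. At the TGI there is no net growth.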
Legend:
Experiment in all cases: NCI-60 cell line screen, 48 h
SK-MEL-2 melanoma = tested on: SK-MEL-2 melanoma
SK-OV-3 ovarian = tested on: SK-OV-3 ovarian
SF-295 CNS = tested on: SF-295 CNS
CCRF-CEM leukemia = tested on: CCRF-CEM leukemia
LXFL 529 NSCLC = tested on: LXFL 529 NSCLC
OVCAR-8 ovarian = tested on: OVCAR-8 ovarian
MALME-3M melanoma = tested on: MALME-3M melanoma
NCI-H522 lung = tested on: NCI-H522 lung
RPMI-8226 leukemia = tested on: RPMI-8226 leukemia
MOLT-4 leukemia = tested on: MOLT-4 leukemia
DMS 114 small cell lung = tested on: DMS 114 small cell lung
SNB-19 CNS = tested on: SNB-19 CNS
SNB-78 CNS = tested on: SNB-78 CNS
LOX IMVI melanoma = tested on: LOX IMVI melanoma
CAKI-1 renal = tested on: CAKI-1 renal
U251 CNS = tested on: U251 CNS
M14 melanoma = tested on: M14 melanoma
NCI-H226 lung = tested on: NCI-H226 lung
HCT-116 colon = tested on: HCT-116 colon
SK-MEL-28 melanoma = tested on: SK-MEL-28 melanoma
A498 renal = tested on: A498 renal
SR leukemia = tested on: SR leukemia
HOP-62 NSCLC = tested on: HOP-62 NSCLC
HCT-15 colon = tested on: HCT-15 colon
A549 NSCLC = tested on: A549 NSCLC
HOP-92 NSCLC = tested on: HOP-92 NSCLC
ACHN renal = tested on: ACHN renal
HCC-2998 colon = tested on: HCC-2998 colon
HT29 colon = tested on: HT29 colon
M19-MEL melanoma = tested on: M19-MEL melanoma
HOP-18 NSCLC = tested on: HOP-18 NSCLC
NCI-H23 lung = tested on: NCI-H23 lung
EKVX NSCLC = tested on: EKVX NSCLC
UACC-257 melanoma = tested on: UACC-257 melanoma
RXF 393 renal = tested on: RXF 393 renal
NCI-H460 lung = tested on: NCI-H460 lung
KM12 colon = tested on: KM12 colon
SF-268 CNS = tested on: SF-268 CNS
COLO 205 colon = tested on: COLO 205 colon
OVCAR-4 ovarian = tested on: OVCAR-4 ovarian
OVCAR-5 ovarian = tested on: OVCAR-5 ovarian
DLD-1 colon = tested on: DLD-1 colon
UO-31 renal = tested on: UO-31 renal
SF-539 CNS = tested on: SF-539 CNS
SW-620 colon = tested on: SW-620 colon
SN12C renal = tested on: SN12C renal
786-0 renal = tested on: 786-0 renal
UACC-62 melanoma = tested on: UACC-62 melanoma
SK-MEL-5 melanoma = tested on: SK-MEL-5 melanoma
K-562 leukemia = tested on: K-562 leukemia
OVCAR-3 ovarian = tested on: OVCAR-3 ovarian
IGROV1 ovarian = tested on: IGROV1 ovarian
BT-549 breast = tested on: BT-549 breast
NCI/ADR-RES ovarian = tested on: NCI/ADR-RES ovarian
KM20L2 colon = tested on: KM20L2 colon
MCF7 breast = tested on: MCF7 breast
MDA-N = tested on: MDA-N
TK-10 renal = tested on: TK-10 renal
HS 578T breast = tested on: HS 578T breast
XF 498 CNS = tested on: XF 498 CNS
DU-145 prostate = tested on: DU-145 prostate
SNB-75 CNS = tested on: SNB-75 CNS
DMS 273 small cell lung = tested on: DMS 273 small cell lung
T-47D breast = tested on: T-47D breast
MDA-MB-231 breast = tested on: MDA-MB-231 breast
PC-3 prostate = tested on: PC-3 prostate
HL-60(TB) leukemia = tested on: HL-60(TB) leukemia
MDA-MB-435 = tested on: MDA-MB-435

Compound: COc1cc(/C=N/N=C(\N)NO)cc(Cl)c1O
- TGI (SK-MEL-2 melanoma): > 100 µM
- TGI (SK-OV-3 ovarian): > 100 µM
- TGI (SF-295 CNS): > 100 µM
- TGI (CCRF-CEM leukemia): > 100 µM
- TGI (LXFL 529 NSCLC): > 100 µM
- TGI (OVCAR-8 ovarian): > 100 µM
- TGI (MALME-3M melanoma): > 100 µM
- TGI (NCI-H522 lung): > 100 µM
- TGI (RPMI-8226 leukemia): > 100 µM
- TGI (MOLT-4 leukemia): > 100 µM
- TGI (DMS 114 small cell lung): > 100 µM
- TGI (SNB-19 CNS): > 100 µM
- TGI (SNB-78 CNS): > 100 µM
- TGI (LOX IMVI melanoma): > 100 µM
- TGI (CAKI-1 renal): > 100 µM
- TGI (U251 CNS): > 100 µM
- TGI (M14 melanoma): > 100 µM
- TGI (NCI-H226 lung): 81.6 µM
- TGI (HCT-116 colon): > 100 µM
- TGI (SK-MEL-28 melanoma): > 100 µM
- TGI (A498 renal): > 100 µM
- TGI (SR leukemia): > 100 µM
- TGI (HOP-62 NSCLC): > 100 µM
- TGI (HCT-15 colon): > 100 µM
- TGI (A549 NSCLC): > 100 µM
- TGI (HOP-92 NSCLC): > 100 µM
- TGI (ACHN renal): > 100 µM
- TGI (HCC-2998 colon): > 100 µM
- TGI (HT29 colon): > 100 µM
- TGI (M19-MEL melanoma): > 100 µM
- TGI (HOP-18 NSCLC): 88.5 µM
- TGI (NCI-H23 lung): > 100 µM
- TGI (EKVX NSCLC): > 100 µM
- TGI (UACC-257 melanoma): > 100 µM
- TGI (RXF 393 renal): 61.7 µM
- TGI (NCI-H460 lung): > 100 µM
- TGI (KM12 colon): > 100 µM
- TGI (SF-268 CNS): > 100 µM
- TGI (COLO 205 colon): > 100 µM
- TGI (OVCAR-4 ovarian): > 100 µM
- TGI (OVCAR-5 ovarian): > 100 µM
- TGI (DLD-1 colon): > 100 µM
- TGI (UO-31 renal): > 100 µM
- TGI (SF-539 CNS): > 100 µM
- TGI (SW-620 colon): > 100 µM
- TGI (SN12C renal): > 100 µM
- TGI (786-0 renal): > 100 µM
- TGI (UACC-62 melanoma): > 100 µM
- TGI (SK-MEL-5 melanoma): > 100 µM
- TGI (K-562 leukemia): > 100 µM
- TGI (OVCAR-3 ovarian): > 100 µM
- TGI (IGROV1 ovarian): > 100 µM

Compound: O=C1C=CC(=O)c2c1c1c(c3c2C2c4ccccc4C3c3ccccc32)C2c3ccccc3C1c1ccccc12
- TGI (SK-MEL-2 melanoma): 4.25 µM
- TGI (SK-OV-3 ovarian): 28.6 µM
- GI50 (SF-295 CNS): 3.21 µM
- TGI (SF-295 CNS): 30.4 µM
- GI50 (CCRF-CEM leukemia): 0.451 µM
- TGI (CCRF-CEM leukemia): 2.93 µM
- TGI (LXFL 529 NSCLC): 2.27 µM
- GI50 (OVCAR-8 ovarian): 2.78 µM
- TGI (OVCAR-8 ovarian): 2.94 µM
- TGI (MALME-3M melanoma): 3.07 µM and 3.05 µM
- TGI (BT-549 breast): 13.7 µM
- GI50 (NCI-H522 lung): 0.254 µM
- TGI (NCI-H522 lung): 0.775 µM and 1.42 µM
- GI50 (RPMI-8226 leukemia): 0.479 µM
- TGI (RPMI-8226 leukemia): > 22.1 µM
- GI50 (MOLT-4 leukemia): 0.393 µM
- TGI (MOLT-4 leukemia): > 54.5 µM
- TGI (DMS 114 small cell lung): 4.41 µM
- GI50 (SNB-19 CNS): 3.62 µM
- TGI (SNB-19 CNS): 34.4 µM
- GI50 (NCI/ADR-RES ovarian): 2.64 µM
- TGI (NCI/ADR-RES ovarian): 6.2 µM
- TGI (SNB-78 CNS): 3.57 µM
- TGI (LOX IMVI melanoma): 2.91 µM and 3.08 µM
- GI50 (CAKI-1 renal): 1.5 µM
- TGI (CAKI-1 renal): 2.83 µM and 3.25 µM
- GI50 (U251 CNS): 4.05 µM
- TGI (U251 CNS): 20.5 µM
- TGI (KM20L2 colon): 15.2 µM
- TGI (M14 melanoma): 3.29 µM and 3.12 µM
- GI50 (NCI-H226 lung): 1.57 µM
- TGI (NCI-H226 lung): 3.02 µM and 11.1 µM
- TGI (HCT-116 colon): 2.85 µM and 2.91 µM
- TGI (SK-MEL-28 melanoma): 2.83 µM
- GI50 (MCF7 breast): 2.58 µM
- TGI (MCF7 breast): 3.29 µM and 7.55 µM
- TGI (A498 renal): 11.1 µM
- TGI (MDA-N): 2.91 µM and 3.01 µM
- TGI (TK-10 renal): 3.31 µM and 3.4 µM
- GI50 (SR leukemia): 0.386 µM
- TGI (SR leukemia): > 43.4 µM
- GI50 (HOP-62 NSCLC): 6.47 µM
- TGI (HOP-62 NSCLC): 35.1 µM
- GI50 (HCT-15 colon): 1.22 µM
- TGI (HCT-15 colon): 2.77 µM and 2.95 µM
- GI50 (HS 578T breast): 2.38 µM
- TGI (HS 578T breast): 6.24 µM
- TGI (XF 498 CNS): 3.34 µM
- GI50 (A549 NSCLC): 3.08 µM
- TGI (A549 NSCLC): 21.9 µM
- TGI (DU-145 prostate): 28.4 µM
- TGI (SNB-75 CNS): 24.4 µM
- GI50 (HOP-92 NSCLC): 1.65 µM
- TGI (HOP-92 NSCLC): 3.08 µM and 2.47 µM
- GI50 (ACHN renal): 1.96 µM
- TGI (ACHN renal): 3.43 µM and 3.16 µM
- GI50 (HCC-2998 colon): 4.91 µM
- TGI (HCC-2998 colon): 17.4 µM
- GI50 (HT29 colon): 1.64 µM
- TGI (HT29 colon): 4.19 µM and 4.29 µM
- TGI (M19-MEL melanoma): 3.6 µM
- GI50 (NCI-H23 lung): 1.81 µM
- TGI (NCI-H23 lung): 4.36 µM and 6.61 µM
- GI50 (EKVX NSCLC): 6.11 µM
- TGI (EKVX NSCLC): 8.53 µM
- TGI (UACC-257 melanoma): 3.58 µM
- GI50 (RXF 393 renal): 2.33 µM
- TGI (RXF 393 renal): 3.86 µM and 3 µM
- GI50 (NCI-H460 lung): 3.85 µM
- TGI (NCI-H460 lung): 26.8 µM
- GI50 (KM12 colon): 2.49 µM
- TGI (KM12 colon): 25.5 µM
- TGI (DMS 273 small cell lung): 4.08 µM
- TGI (SF-268 CNS): 16.5 µM
- GI50 (T-47D breast): 2 µM
- TGI (T-47D breast): 3.25 µM and 3.49 µM
- GI50 (COLO 205 colon): 1.67 µM
- TGI (COLO 205 colon): 3.66 µM and 2.86 µM
- TGI (OVCAR-4 ovarian): 3.92 µM
- TGI (OVCAR-5 ovarian): 16.3 µM
- TGI (DLD-1 colon): 2.3 µM
- GI50 (UO-31 renal): 1.62 µM
- TGI (UO-31 renal): 3.09 µM and 4.32 µM
- TGI (SF-539 CNS): 11.5 µM
- GI50 (SW-620 colon): 0.588 µM
- TGI (SW-620 colon): 4.82 µM and 2.16 µM
- GI50 (SN12C renal): 1.43 µM
- TGI (SN12C renal): 3 µM and 7.45 µM
- TGI (786-0 renal): 2.99 µM and 2.88 µM
- GI50 (UACC-62 melanoma): 1.74 µM
- TGI (UACC-62 melanoma): 4.37 µM and 4.7 µM
- GI50 (MDA-MB-231 breast): 2.02 µM
- TGI (MDA-MB-231 breast): 4.09 µM
- GI50 (SK-MEL-5 melanoma): 1.52 µM
- TGI (SK-MEL-5 melanoma): 3.11 µM and 6.21 µM
- GI50 (PC-3 prostate): 9.64 µM
- TGI (PC-3 prostate): 3.37 µM and 21.6 µM
- GI50 (K-562 leukemia): 0.552 µM
- TGI (K-562 leukemia): 3.94 µM and 10.7 µM
- GI50 (HL-60(TB) leukemia): 0.657 µM
- TGI (HL-60(TB) leukemia): 4.1 µM and 4.85 µM
- TGI (OVCAR-3 ovarian): 3.3 µM
- GI50 (IGROV1 ovarian): 2.08 µM
- TGI (IGROV1 ovarian): 4.58 µM and 14.7 µM
- TGI (MDA-MB-435): 3.34 µM and 3.35 µM

Source: PubChem BioAssay (NCI)
